In article PMC7076710, “Synthesis, Identification, and Structure–Activity Relationship Analysis of GATA4 and NKX2-5 Protein–Protein Interaction Modulators” (Journal of Medicinal Chemistry, 2019):
Like-named read-outs stand apart in the source and are kept apart here. One block for each molecule: values may come before it.

Columns and labels:
Type in all cases: cell-based
[1] = molecular target: T1, GATA4–NKX2-5 transcriptional synergy (Mus musculus, UniProt P42582+Q08369); test: GATA4–NKX2-5 transcriptional synergy luciferase reporter assay (3xNKE reporter, COS-1 cells)
T1 construct: expressed in transfected cells; host or cells: COS-1
T1 sequence (Q08369 whole entry): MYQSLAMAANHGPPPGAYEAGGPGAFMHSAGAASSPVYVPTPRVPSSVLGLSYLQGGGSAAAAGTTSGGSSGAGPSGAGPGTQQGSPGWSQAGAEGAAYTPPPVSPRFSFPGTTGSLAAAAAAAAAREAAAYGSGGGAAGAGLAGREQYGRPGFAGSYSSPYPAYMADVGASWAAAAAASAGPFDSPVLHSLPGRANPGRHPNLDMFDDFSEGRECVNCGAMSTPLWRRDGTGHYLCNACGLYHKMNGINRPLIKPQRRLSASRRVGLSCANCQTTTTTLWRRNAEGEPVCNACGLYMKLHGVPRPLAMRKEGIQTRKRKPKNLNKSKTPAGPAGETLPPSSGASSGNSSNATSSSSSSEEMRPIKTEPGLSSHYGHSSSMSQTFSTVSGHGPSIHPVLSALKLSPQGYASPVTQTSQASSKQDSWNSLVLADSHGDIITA
T1 sequence (P42582 whole entry): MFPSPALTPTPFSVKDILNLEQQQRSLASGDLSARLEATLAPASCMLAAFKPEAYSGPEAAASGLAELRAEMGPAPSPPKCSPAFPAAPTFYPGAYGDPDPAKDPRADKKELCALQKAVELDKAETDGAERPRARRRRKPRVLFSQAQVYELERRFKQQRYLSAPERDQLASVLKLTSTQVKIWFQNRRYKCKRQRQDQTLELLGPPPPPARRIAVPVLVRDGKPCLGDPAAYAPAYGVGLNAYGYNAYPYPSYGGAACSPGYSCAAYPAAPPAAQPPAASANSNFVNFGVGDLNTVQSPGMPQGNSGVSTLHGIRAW

[2] = molecular target: T2, NKX2-5 transcriptional activity (Mus musculus, UniProt P42582); test: NKX2-5 luciferase reporter assay (3xNKE reporter, COS-1 cells); conditions: for activity at 3 µM: read-out: NKX.3µM; for activity at 10 µM: read-out: NKX.10µM
T2 construct: expressed in transfected cells; host or cells: COS-1
T2 sequence (P42582 whole entry): as above
Protocol: (§1) To screen compounds for the GATA4–NKX2-5 interaction, we have developed a luciferase reporter assay based on their property to activate gene transcription synergistically through the NKX2-5 binding site on DNA.[28] In this assay, we transfected mammalian COS-1 cells with protein expression vectors for GATA4 and NKX2-5 proteins together with artificial luciferase reporter vector containing three high affinity binding sites for NKX2-5 (NKE). […] All 257 compounds were tested in two concentrations, 3 and 10 μM. Compounds either inhibited, enhanced, or had no effect on the GATA4–NKX2-5 transcriptional synergy. To investigate the selectivity of the active compounds, we tested their effects on NKX2-5 transcriptional activity by using the same luciferase reporter vector as in transcriptional synergy assay with three NKE sites (Figure 3B). Furthermore, we used GATA luciferase reporter assay to examine if compounds have an effect on GATA4 transcriptional activity. In this assay, we cotransfected the cells with a GATA4 protein expression vector and a reporter vector with tandem GATA4 binding sites (Figure 3C). Previously we have reported that compound 1 inhibited the GATA4–NKX2-5 transcriptional synergy at micromolar concentrations (IC50 = 3 μM).[29]
(§2) The plasmids expressing mouse GATA4 protein, pMT2-GATA4, and empty pMT2 were gifts from D. B. Wilson (Department of Pediatrics, St. Louis Children’s Hospital, St. Louis, MO).[44] The plasmids expressing mouse NKX2-5 protein, pMT2-NKX2-5, have been described earlier.[28] The luciferase reporter plasmid used in GATA4–NKX2-5 transcriptional synergy assay and NKX transcriptional assay, pGL3-3xHA, contains three high affinity binding sites for NKX2-5.[28] The luciferase reporter plasmid used in GATA transcriptional assay, NP-112, contains tandem GATA-sites and minimal promoter of rat brain natriuretic peptide (BNP) gene.[45] The pGL3-BNP luciferase reporter containing −534/+4 bp rat BNP proximal promoter described previously was used in hypertrophy assay.[46]
(§3) The primary screening assay of compounds’ effect on GATA4–NKX2-5 transcriptional synergy and COS-1 cell culturing has been described earlier.[33] […] (Kinnunen et al., unpublished observation). Briefly, COS-1 cells were seeded at 14 000 cells/well in Isoplate-96 microplates (PerkinElmer, Turku, Finland) and grown overnight. The cells were transfected with the luciferase reporter plasmid pGL3-3xHA 100 ng/well and equal amounts of expression plasmids pMT2-GATA4 and pMT2-NKX2-5 total 50 ng/well. To verify the synergistic effect, the cells were transfected with pMT2-GATA4 or pMT2-NKX2-5 25 ng/well, and the total DNA concentration was adjusted to 50 ng/well with empty pMT2 plasmid. In NKX2-5 and GATA4 luciferase reporter assays, the cells were transfected with reporter plasmid pGL3-3xHA or NP-112 (100 ng/well) and expression plasmid pMT2-NKX2-5 or pMT2-GATA4 (25 ng/well). The ratio of DNA/transfection reagent (Fugene 6, Promega) was 1:3 in all assays. The transfections were performed in serum and antibiotics free media for 6 h. The cells were treated with compounds or vehicle (0.1% DMSO) for 24 h, and the luminescence was measured using neolite Reporter Gene Assay System (PerkinElmer, Turku, Finland) and Victor2 plate reader (PerkinElmer, Turku, Finland).
(§4) Raw luciferase data were analyzed in Excel, and clear outliers were removed from triplicates by using the Grubb’s test. Data analysis was performed using R.[49] The luciferase data were first normalized on the basis of the combined mean value of controls. For data visualization and creation of figures, the following R packages were used: ggplot2, cowplot, RColorBrewer, and pheatmap. The heatmaps of the toxicity data were produced with GraphPad Prism 7.00 (GraphPad Software, La Jolla, CA). Statistical significance of luciferase reporter assay data was evaluated by randomized block analysis of variance followed by Dunnett’s post hoc test. […]

[3] = molecular target: T3, GATA4 transcriptional activity (Mus musculus, UniProt Q08369); test: GATA4 luciferase reporter assay (tandem GATA-site reporter, COS-1 cells)
T3 construct: expressed in transfected cells; host or cells: COS-1
T3 sequence (Q08369 whole entry): as the sequence (Q08369 whole entry) above
Protocol: as §1, §2, §3, §4

[4] = COS-1, compound 3 µM, luciferase reporter activity, spread in separate STDEV column
[5] = COS-1, compound 10 µM, luciferase reporter activity, spread in separate STDEV column
[6] = COS-1, GATA4-NKX2-5 transcriptional synergy luciferase reporter assay, compound at 3 µM
[7] = COS-1, GATA4-NKX2-5 transcriptional synergy luciferase reporter assay, compound at 10 µM
[8] = COS-1, NKX2-5 luciferase reporter assay, compound at 3 µM
[9] = COS-1, NKX2-5 luciferase reporter assay, compound at 10 µM
[10] = COS-1, GATA4 luciferase reporter assay, compound at 10 µM
[11] = COS-1, 3 µM, luciferase reporter activity, % of control
[12] = 3 µM compound, GATA4–NKX2-5 transcriptional synergy reporter, COS-1 cells
[13] = 10 µM compound, GATA4–NKX2-5 transcriptional synergy reporter, COS-1 cells
[14] = 3 µM compound, NKX2-5 luciferase reporter, COS-1 cells
[15] = 10 µM compound, NKX2-5 luciferase reporter, COS-1 cells
[16] = 3 µM compound, GATA4 luciferase reporter, COS-1 cells
[17] = COS-1, 10 µM, luciferase reporter activity, % of control
[18] = 10 µM compound, GATA4 luciferase reporter, COS-1 cells

activity at 3 µM [1, 11]: 83.4%
activity at 3 µM [2, 11]: 106%
activity at 3 µM [3, 11]: 127%
SMILES: CCN(CC)c1ccc(NC(=O)c2c(C)nc3ccccn23)cc1 [Compound 47ab]

activity at 3 µM [1, 12]: 119%
activity at 10 µM [1, 13]: 105%
activity at 3 µM [2, 14]: 122%
activity at 10 µM [2, 15]: 106%
activity at 3 µM [3, 16]: 108%
SMILES: CCN(CC)c1ccc(NC(=O)c2c(-c3ccoc3)noc2C)cc1 [Compound 39n]

activity at 3 µM [1, 12]: 85.5%
activity at 3 µM [2, 14]: 82.5%
activity at 3 µM [3, 16]: 73.9%
SMILES: Cc1onc(-c2ccccc2)c1COc1ccc(C(=O)OCCCC#N)cc1 [Compound 35b, 3-Cyanopropyl 4-[(5-Methyl-3-phenylisoxazol-4-yl)methoxy]benzoate]

activity at 3 µM [1, 11]: 110%
activity at 10 µM [1, 17]: 100%
activity at 3 µM [2, 11]: 108%
activity at 10 µM [2, 17]: 145%
activity at 3 µM [3, 11]: 107%
activity at 10 µM [3, 17]: 122%
SMILES: CN(C)c1ccc(/N=C/c2c[nH]nc2-c2ccc(F)cc2)cc1 [Compound 75]

activity at 3 µM [1, 4]: 118%
activity at 10 µM [1, 5]: 104%
activity at 3 µM [2, 4]: 114%
activity at 10 µM [2, 5]: 106%
activity at 3 µM [3, 4]: 134%
activity at 10 µM [3, 5]: 143%
SMILES: CCN(CC)c1ccc(NC(=O)c2cc(C)oc2-c2cc(C)on2)cc1 [Compound 47h]

activity at 3 µM [1, 11]: 69.3%
activity at 10 µM [1, 17]: 109%
activity at 3 µM [2, 11]: 99.3%
activity at 10 µM [2, 17]: 103%
activity at 3 µM [3, 11]: 109%
activity at 10 µM [3, 17]: 97.6%
SMILES: Cc1onc(-c2ccccc2)c1N=Cc1ccc(N(C)C)cc1 [SI108]

activity at 3 µM [1, 4]: 76.3%
activity at 10 µM [1, 5]: 85.4%
activity at 3 µM [2, 4]: 84%
activity at 10 µM [2, 5]: 78.3%
activity at 3 µM [3, 4]: 74.4%
activity at 10 µM [3, 5]: 72.4%
SMILES: COc1ccc(-c2cc(NCc3ccc(N(C)C)cc3)n[nH]2)cc1 [SI92]

activity at 3 µM [1, 6]: 93.2%
activity at 10 µM [1, 7]: 72.3%
activity at 3 µM [2, 8]: 106%
activity at 10 µM [2, 9]: 90.4%
activity at 3 µM ([3]; COS-1, GATA4 luciferase reporter assay, compound at 3 µM): 105%
activity at 10 µM [3, 10]: 80.9%
SMILES: COc1cc(C(=O)Nc2cc(-c3ccncc3)n[nH]2)ccc1C [SI123]

Second part, the molecule before the results:

SMILES: Cc1onc(-c2ccccc2)c1C(=O)Nc1ccc(C(=O)OCCC#N)cc1 [Compound 76]
activity at 3 µM [1, 4]: 98.7%
activity at 10 µM [1, 5]: 104%
activity at 3 µM [2, 4]: 132%
activity at 10 µM [2, 5]: 126%
activity at 3 µM [3, 4]: 97.1%
activity at 10 µM [3, 5]: 73.4%

SMILES: CC(C)c1ccc(NC(=O)c2noc3c2CCc2sccc2-3)cc1 [Compound 66]
activity at 3 µM [1, 6]: 132%
activity at 10 µM [1, 7]: 128%
activity at 3 µM [2, 8]: 122%
activity at 10 µM [2, 9]: 106%
activity at 10 µM [3, 10]: 124%

SMILES: C#CC[N+](CC)(CC)c1ccc(NC(=O)c2c(-c3ccccc3)noc2C)cc1 [Compound 77]
activity at 3 µM [1, 11]: 84%
activity at 10 µM [1, 17]: 101%
activity at 3 µM [2, 11]: 97.9%
activity at 10 µM [2, 17]: 117%
activity at 3 µM [3, 11]: 101%
activity at 10 µM [3, 17]: 95.3%

SMILES: CCN(CC)c1ccc(-n2c(=O)c3c(C)onc3c3ccccc32)cc1 [Compound 78]
effect on GATA4–NKX2-5 transcriptional synergy (in words) [1]: no effect
activity at 3 µM [1, 12]: 84.1%
activity at 10 µM [1, 13]: 100%
activity at 3 µM [2, 14]: 105%
activity at 10 µM [2, 15]: 112%
activity at 3 µM [3, 16]: 101%
activity at 10 µM [3, 18]: 113%

SMILES: CCN(c1ccc(NC(=O)c2c(C)noc2-c2cc(C)on2)cc1)C(C)C [Compound 74]
activity at 10 µM [1, 13]: 96.6%
activity at 3 µM [2, 14]: 85.2%
activity at 10 µM [2, 15]: 88.8%
activity at 3 µM [3, 16]: 103%
activity at 10 µM [3, 18]: 125%

SMILES: Cc1onc(-c2ccccc2)c1C(=O)Nc1nc(C(C)(C)C)cs1 [Compound 4k, N-[4-(tert-Butyl)thiazol-2-yl]-5-methyl-3-phenylisoxazole-4-carboxamide]
activity at 3 µM [1, 4]: 117%
activity at 10 µM [1, 5]: 115%
activity at 3 µM [2, 4]: 97.7%
activity at 3 µM [3, 4]: 109%
activity at 10 µM [3, 5]: 114%

SMILES: Cc1onc(-c2ccccc2)c1C(=O)Nc1ccc(C(=O)OCCCC#N)cc1 [Compound 10b]
activity at 3 µM [1, 4]: 93%
activity at 3 µM [2, 4]: 105%
activity at 3 µM [3, 4]: 103%
activity at 10 µM [3, 5]: 114%
